In the supplement of paper PMC8671470:

Assays:
Assay in all cases: cell viability (% survival relative to DMSO control, bortezomib = 0%); higher = less cytotoxic
Conditions in all cases: 72 h
HEL = system: HEL
How it was run: (§1)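 Percent survival figures are means of duplicate wells. They were obtained by CellTiter-Glo luminescence after 10 AML and 5 CML cell lines spent 72 h at 37 °C with 5% CO2 in 384-well plates with compounds at 1, 10, 100, 1000 or 10000 nM. Vehicle was set to 100% and a 10 µM positive control to 0%.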

KCL-22 = system: KCL-22
How it was run: as §1

LAMA-84 = system: LAMA-84
How it was run: as §1

NOMO-1 = system: NOMO-1
How it was run: as §1

SMILES | cell viability (HEL; 1 nM) | cell viability (HEL; 10 nM) | cell viability (HEL; 100 nM) | cell viability (HEL; 1000 nM) | cell viability (HEL; 10000 nM) | cell viability (KCL-22; 1 nM) | cell viability (KCL-22; 10 nM) | cell viability (KCL-22; 100 nM) | cell viability (KCL-22; 1000 nM) | cell viability (KCL-22; 10000 nM) | cell viability (LAMA-84; 1 nM) | cell viability (LAMA-84; 10 nM) | cell viability (LAMA-84; 100 nM) | cell viability (LAMA-84; 1000 nM) | cell viability (LAMA-84; 10000 nM) | cell viability (NOMO-1; 1 nM) | cell viability (NOMO-1; 10 nM) | cell viability (NOMO-1; 100 nM) | cell viability (NOMO-1; 1000 nM) | cell viability (NOMO-1; 10000 nM)
Clc1ccc2c(c1Cl)CNCC2 | 100% | 111% | 90.9% | 107% | 82.4% | 101% | 120% | 92.2% | 108% | 91.5% | 98.6% | 105% | 93.7% | 110% | 94.4% | 95.4% | 100% | 101% | 102% | 90.9%
O=c1c2ccccc2[se]n1-c1ccccc1 [Ebselen] | 102% | 97.3% | 106% | 96.5% | 81.8% | 103% | 97.8% | 104% | 96.5% | 93.1% | 93.3% | 97.1% | 95.5% | 92.1% | 101% | 93.7% | 103% | 97.3% | 94.3% | 102%
CCOC(=O)[C@H]1O[C@@H]1C(=O)N[C@@H](CC(C)C)C(=O)NCCC(C)C [Aloxistatin] | 111% | 102% | 106% | 96.2% | 88.2% | 98.4% | 89.2% | 102% | 99.5% | 87.3% | 93.7% | 101% | 101% | 101% | 98.6% | 96.2% | 109% | 100% | 96.2% | 24.4%
Clc1ccc(COC(Cn2ccnc2)c2ccc(Cl)cc2Cl)cc1 (stereo not given) [Econazole] | 106% | 90.4% | 99.1% | 99% | 77.3% | 116% | 91.2% | 96.9% | 84.2% | 54.8% | 103% | 95.5% | 91.8% | 92% | 58.1% | 105% | 84.8% | 98.2% | 93.2% | 89.1%
Oc1cc(Cl)ccc1Oc1ccc(Cl)cc1Cl [Triclosan] | 118% | 110% | 86.3% | 105% | 108% | 115% | 98.3% | 89.7% | 105% | 65.5% | 102% | 91.1% | 103% | 108% | 66.5% | 102% | 89% | 99.3% | 104% | 105%
CC(C)Cc1sc(N)nc1-c1ccc(P(=O)(O)O)o1 | 95.3% | 93.1% | 118% | 109% | 85.5% | 95.8% | 108% | 108% | 112% | 101% | 111% | 97.4% | 102% | 94.4% | 80.3% | 97.7% | 96.9% | 98% | 99.5% | 83.9%
O=C(O)c1nn(Cc2ccc(Cl)cc2Cl)c2ccccc12 [Lonidamine] | 102% | 111% | 120% | 99.5% | 106% | 103% | 111% | 107% | 84% | 90.7% | 99.1% | 94.6% | 108% | 99.9% | 102% | 96.7% | 99.9% | 107% | 106% | 105%
CCOc1ccc(Cc2cc([C@@H]3O[C@H](CO)[C@@H](O)[C@H](O)[C@H]3O)ccc2Cl)cc1 [Dapagliflozin] | 99.9% | 102% | 75.6% | 97.7% | 122% | 116% | 109% | 54.2% | 96.7% | 107% | 98.1% | 111% | 89.7% | 97.7% | 90.5% | 95.2% | 101% | 88.1% | 104% | 97%
C#Cc1cnc(O)nc1O [Eniluracil] | 100% | 92.2% | 118% | 90.1% | 106% | 109% | 115% | 113% | 104% | 113% | 100% | 102% | 107% | 109% | 104% | 96.4% | 103% | 101% | 104% | 109%
O=C(O)C(Cl)Cl [Dichloroacetate] | 102% | 102% | 101% | 97% | 103% | 101% | 97.7% | 93.4% | 92.1% | 102% | 101% | 100% | 98% | 101% | 99.3% | 101% | 98.9% | 102% | 102% | 103%
CCCc1nn(C)c2c(O)nc(-c3cc(S(=O)(=O)N4CCN(C)CC4)ccc3OCC)nc12 [Sildenafil] | 96.8% | 115% | 100% | 108% | 122% | 89.7% | 102% | 97.5% | 88.7% | 113% | 91.3% | 98.8% | 92.1% | 95% | 103% | 86.9% | 104% | 93.2% | 96.8% | 94.9%
COc1c(C)c2c(c(O)c1C/C=C(\C)CCC(=O)O)C(=O)OC2 [Mycophenolic acid] | 94.5% | 108% | 104% | 51.7% | 3.56% | 105% | 98.8% | 79.8% | 24.7% | 8.9% | 106% | 93.2% | 108% | 46.8% | 16.9% | 103% | 96.6% | 106% | 89.2% | 24.7%
Cc1c(-c2ccccc2)oc2c(C(=O)OCCN3CCCCC3)cccc2c1=O.Cl [Flavoxate] | 91% | 105% | 107% | 95.3% | 100% | 94.6% | 93.2% | 102% | 95.6% | 87% | 98% | 102% | 97.6% | 101% | 101% | 93.8% | 105% | 99.3% | 97.1% | 99.6%
